Test results taken from patent publication US4605744A, “Imidazole derivatives” (Hoffmann-La Roche Inc., priority 1985, dated 1986).
In brackets after ≈: the same amount, converted by molar mass. Counter-ions that a name gives are not always drawn. Like-named read-outs stand apart in the source and are kept apart here.

Legend:
Format in all cases: cell-based
[1] = system: E. coli 257; test: In vitro antibacterial activity (MIC, Mueller-Hinton broth)
Description: Drug dilutions are prepared in Mueller-Hinton broth ranging from 128 to 0.008 μg/ml. The diluted agents are dispensed in 100 μl amounts into the wells of a 96-well tray and used immediately or frozen at -10° to -70° C. until needed. Using an automated inoculator, 1.5 μl of a 10^-2 dilution of an overnight culture is added to each well of the tray. The tops of the trays are then sealed using transparent tape and incubated overnight at 37° C. The trays are examined with the aid of a viewer. The lowest concentration at which no growth is observed is considered to be the minimum inhibitory concentration (MIC).

[2] = system: P. mirabilis 503-1136; test: In vitro antibacterial activity (MIC); conditions: Proteus mirabilis, 5031136, P. mirabilis 503-1136; read-out: MIC
Method in brief: (§1)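 Broth microdilution in Mueller-Hinton broth, drug range 128 to 0.008 μg/ml. Each well received 1.5 μl of a 10^-2 dilution of an overnight culture; sealed trays were incubated overnight at 37° C. MIC = lowest concentration with no visible growth.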

[3] = system: S. marcescens S1; test: In vitro antibacterial activity (MIC); conditions: Serratia marcescens, S1, S. marcescens S1; read-out: MIC
Method in brief: as §1

[4] = system: E. aerogenes 8; test: In vitro antibacterial activity (MIC)
Method in brief: as §1

[5] = system: S. aureus 1059B; test: In vitro antibacterial activity (MIC); conditions: Staphylococcus aureus, read-out: MIC
Method in brief: as §1

[6] = system: S. schottmuelleri; test: In vitro antibacterial activity (MIC)
Method in brief: as §1

[7] = system: S. marcescens S4; test: In vitro antibacterial activity (MIC); conditions: Serratia marcescens, S4, S. marcescens S4; read-out: MIC
Method in brief: as §1

[8] = system: S. pyogenes 4; test: In vitro antibacterial activity (MIC); conditions: Streptococcus pyogenes, 4, S. pyogenes 4; read-out: MIC
Method in brief: as §1

[9] = system: P. aeruginosa 8710; test: In vitro antibacterial activity (MIC); conditions: Pseudomonas aeruginosa; P. aeruginosa 8710; read-out: MIC
Method in brief: as §1

[10] = system: K. pneumoniae 4964; test: In vitro antibacterial activity (MIC)
Method in brief: as §1

[11] = system: P. mirabilis 190; test: In vitro antibacterial activity (MIC); conditions: Proteus mirabilis, 190, P. mirabilis 190; read-out: MIC
Method in brief: as §1

[12] = system: E. coli 4; test: In vitro antibacterial activity (MIC); conditions: Escherichia coli, 4, E. coli 4; read-out: MIC
Method in brief: as §1

[13] = system: E. coli 387-1; test: In vitro antibacterial activity (MIC)
Method in brief: as §1

[14] = system: P. vulgaris 101; test: In vitro antibacterial activity (MIC); conditions: Proteus vulgaris, 101, P. vulgaris 101; read-out: MIC
Method in brief: as §1

[15] = system: E. coli 503-455; test: In vitro antibacterial activity (MIC)
Method in brief: as §1

[16] = system: P. aeruginosa 503-820; test: In vitro antibacterial activity (MIC); conditions: Pseudomonas aeruginosa, 503820; P. aeruginosa 503-820; read-out: MIC
Method in brief: as §1

[17] = system: P. mirabilis 90; test: In vitro antibacterial activity (MIC); conditions: Proteus mirabilis, 90, P. mirabilis 90; read-out: MIC
Method in brief: as §1

[18] = system: P. aeruginosa 8780; test: In vitro antibacterial activity (MIC); conditions: Pseudomonas aeruginosa; P. aeruginosa 8780; read-out: MIC
Method in brief: as §1

[19] = system: S. marcescens S714; test: In vitro antibacterial activity (MIC); conditions: Serratia marcescens, S714, S. marcescens S714; read-out: MIC
Method in brief: as §1

[20] = system: E. aerogenes 83; test: In vitro antibacterial activity (MIC)
Method in brief: as §1

[21] = system: E. cloacae 24; test: In vitro antibacterial activity (MIC); conditions: Enterobacter cloacae, 24, E. cloacae 24; read-out: MIC
Method in brief: as §1

[22] = system: K. pneumoniae A; test: In vitro antibacterial activity (MIC); conditions: Klebsiella pneumoniae
Method in brief: as §1

[23] = Klebsiella aerogenes, E. aerogenes 8, read-out: MIC
[24] = Escherichia coli, 3871, E. coli 387-1, read-out: MIC
[25] = Escherichia coli, 503455, E. coli 503-455, read-out: MIC
[26] = Klebsiella aerogenes, 83, E. aerogenes 83, read-out: MIC
[27] = Escherichia coli, 257, E. coli 257, read-out: MIC
[28] = Klebsiella pneumoniae, 4964, K. pneumoniae 4964, read-out: MIC

| SMILES | MIC [2] | MIC [3] | MIC [4, 23] | MIC [5] | MIC ([6]; read-out: MIC) | MIC [7] | MIC [8] | MIC [9] | MIC [11] | MIC [12] | MIC [13, 24] | MIC [14] | MIC [15, 25] | MIC [16] | MIC [17] | MIC [18] | MIC [19] | MIC [20, 26] | MIC [21] | MIC ([22]; K. pneumoniae A, read-out: MIC) | further results |
| --- | --- | --- | --- | --- | --- | --- | --- | --- | --- | --- | --- | --- | --- | --- | --- | --- | --- | --- | --- | --- | --- |
| CCc1nc(C)cn1CCCC1CCN(C=N[C@@H]2C(=O)N3[C@@H]2SC(C)(C)[C@@H]3C(=O)O)CC1 [G, [2S-(2alpha,5alpha,6beta)]-6-[[[4-[3-(2-ethyl-4methyl-1H-imidazol-1-yl)propyl]piperidinyl]methylene]amino]-3,3-dimethyl-7-oxo-4-thia-1-azabicyclo[3.2.0]heptane-2-carboxylic acid hydrochloride] | 16 µg/mL | 1 µg/mL | 16 µg/mL | 128 µg/mL | 0.125 µg/mL | 2 µg/mL | 1 µg/mL | > 128 µg/mL | 0.5 µg/mL | 0.25 µg/mL | 0.25 µg/mL | 16 µg/mL | 4 µg/mL | > 128 µg/mL | 1 µg/mL | > 128 µg/mL | 8 µg/mL | 0.5 µg/mL | 0.5 µg/mL | – | MIC ([1]; Escherichia coli, 257): 0.25 µg/mL; MIC ([10]; Klebsiella pneumoniae, 4964): 2 µg/mL; MIC [22]: 0.125 µg/mL |
| Cc1nccn1CCCC1CCN(C=N[C@@H]2C(=O)N3[C@@H]2SC(C)(C)[C@@H]3C(=O)O)CC1 [F, [2S-(2alpha,5alpha,6beta)]-3,3-dimethyl-6-[[[4-[3-(2-methyl-1H-imidazol-1-yl)propyl]-1-piperidinyl]methylene]amino]-7-oxo-4-thia-1-azabicyclo[3.2.0]heptane-2-carboxylic acid 1.15 molar hydrochloride 1.75 molar hydrate] | 8 µg/mL | 0.5 µg/mL | 32 µg/mL | 64 µg/mL | 0.062 µg/mL | 2 µg/mL | 0.5 µg/mL | > 128 µg/mL | 0.25 µg/mL | 0.062 µg/mL | 0.125 µg/mL | 16 µg/mL | 2 µg/mL | > 128 µg/mL | 0.5 µg/mL | > 12 µg/mL | 1 µg/mL | – | 0.25 µg/mL | 0.031 µg/mL | MIC [1, 27]: 0.125 µg/mL; MIC ([10]; Klebsiella pneumoniae, 4964): 32 µg/mL; MIC ([20]; Klebsiella aerogenes, 83): 16 µg/mL |
| CC1(C)S[C@@H]2[C@H](N=CN3CCC(Cn4ccnc4N)CC3)C(=O)N2[C@H]1C(=O)O [H, [2S-(2alpha,5alpha,6beta)]-6-[[[4-[(2-amino-1H-imidazol-1-yl)methyl-1-piperidinyl]methylene]amino]-3,3-dimethyl-7-oxo-4-thia-1-azabicyclo[3.2.0]heptane-2-carboxylic acid hydrochloride] | 4 µg/mL | 0.125 µg/mL | – | 128 µg/mL | 0.062 µg/mL | 0.5 µg/mL | 1 µg/mL | 128 µg/mL | 0.125 µg/mL | 0.062 µg/mL | 0.125 µg/mL | 8 µg/mL | – | 64 µg/mL | 0.125 µg/mL | > 128 µg/mL | 0.25 µg/mL | – | 0.25 µg/mL | 0.031 µg/mL | MIC ([1]; Escherichia coli, 257): 0.25 µg/mL; MIC ([4]; Klebsiella aerogenes, 8, E. aerogenes 8): 32 µg/mL; MIC [10, 28]: 64 µg/mL; MIC ([15]; Escherichia coli, 503455): 1 µg/mL; MIC ([20]; Klebsiella aerogenes, 83): 16 µg/mL |
| CC1(C)S[C@@H]2[C@H](N=CN3CCC(Cn4ccnc4)CC3)C(=O)N2[C@H]1C(=O)O [Compound A] | 8 µg/mL (≈ 20.4 µM) | 0.25 µg/mL (≈ 0.639 µM) | 32 µg/mL (≈ 81.7 µM) | 32 µg/mL (≈ 81.7 µM) | 0.125 µg/mL (≈ 0.319 µM) | 1 µg/mL (≈ 2.55 µM) | 1 µg/mL (≈ 2.55 µM) | > 128 µg/mL | 0.25 µg/mL (≈ 0.639 µM) | 0.062 µg/mL (≈ 0.158 µM) | – | 16 µg/mL (≈ 40.9 µM) | 2 µg/mL (≈ 5.11 µM) | > 128 µg/mL | 1 µg/mL (≈ 2.55 µM) | > 128 µg/mL | 1 µg/mL (≈ 2.55 µM) | 2 µg/mL (≈ 5.11 µM) | 0.5 µg/mL (≈ 1.28 µM) | < 0.008 µg/mL | MIC ([1]; Escherichia coli, 257): 0.125 µg/mL (≈ 0.319 µM); MIC [10, 28]: 2 µg/mL (≈ 5.11 µM); MIC ([13]; Escherichia coli, 3871): 0.125 µg/mL (≈ 0.319 µM) |
| CC1(C)S[C@@H]2[C@H](N=CN3CCC(Cn4ccnc4CN)CC3)C(=O)N2[C@H]1C(=O)O [J, [2S-(2alpha,5alpha,6beta)]-6-[[[4-[[2-(aminomethyl)-1H-imidazol-1-yl]methyl]-1-piperidinyl]methylene]amino]-3,3-dimethyl-7-oxo-4-thia-1-azabicyclo[3.2.0]heptane-2-carboxylic acid hydrochloride] | 8 µg/mL | 0.5 µg/mL | 0.5 µg/mL | > 128 µg/mL | – | 1 µg/mL | 4 µg/mL | > 128 µg/mL | 0.5 µg/mL | 0.062 µg/mL | 0.125 µg/mL | 8 µg/mL | 1 µg/mL | > 128 µg/mL | 1 µg/mL | > 128 µg/mL | 0.5 µg/mL | 1 µg/mL | 0.5 µg/mL | 0.062 µg/mL | MIC [1, 27]: 0.125 µg/mL; MIC [6]: 0.062 µg/mL; MIC [10, 28]: 0.5 µg/mL |
| Cc1nc(C)n(CCCC2CCN(C=N[C@@H]3C(=O)N4[C@@H]3SC(C)(C)[C@@H]4C(=O)O)CC2)c1C [E, [2S-(2alpha,5alpha,6beta)]-6[[4-[3-[(2,4,5-trimethyl-1H-imidazol-1-yl)propyl]-1-piperidinyl]methylene]amino]-3,3-dimethyl-7-oxo-4-thia-1-azabicyclo[3.2.0]heptane-2-carboxylic acid hydrate hydrochloride] | 4 µg/mL | 1 µg/mL | 32 µg/mL | 64 µg/mL | 0.062 µg/mL | 0.5 µg/mL | 0.5 µg/mL | > 128 µg/mL | 0.25 µg/mL | 4 µg/mL | 4 µg/mL | 4 µg/mL | 2 µg/mL | > 128 µg/mL | 0.5 µg/mL | > 128 µg/mL | 1 µg/mL | 0.5 µg/mL | 0.5 µg/mL | 0.062 µg/mL | MIC [1, 27]: 0.062 µg/mL; MIC [10, 28]: 1 µg/mL |
| CC1(C)S[C@@H]2[C@H](N=CN3CCC(C4=NCCN4)CC3)C(=O)N2[C@H]1C(=O)O [L, [2S-(2alpha,5alpha,6beta)]-6-[[[4-(4,5-dihydro-1H-imidazol-2-yl)-1-piperidinyl]methylene]amino]-3,3-dimethyl-7-oxo-4-thia-1-azabicyclo[3.2.0]heptane-2-carboxylic acid hydrochloride] | 8 µg/mL | 0.5 µg/mL | 32 µg/mL | 64 µg/mL | 0.25 µg/mL | 2 µg/mL | 0.5 µg/mL | 128 µg/mL | 0.5 µg/mL | 0.125 µg/mL | 0.25 µg/mL | 32 µg/mL | 4 µg/mL | 128 µg/mL | 2 µg/mL | > 128 µg/mL | 2 µg/mL | 2 µg/mL | 1 µg/mL | 0.25 µg/mL | MIC [1, 27]: 1 µg/mL; MIC [10, 28]: 64 µg/mL |
| CC1(C)S[C@@H]2[C@H](N=CN3CCC(CCCn4ccnc4[N+](=O)[O-])CC3)C(=O)N2[C@H]1C(=O)O [K, [2S-(2alpha,5alpha,6beta)]-6-[[[4-[3-(2-nitro-1H-imidazol-1-yl)propyl]piperidinyl]methylene]amino]-3,3-dimethyl-7-oxo-4-thia-1-azabicyclo[3.2.0]heptane-2-carboxylic acid hydrochloride 0.66 molar hydrate] | 8 µg/mL | 2 µg/mL | 8 µg/mL | 128 µg/mL | 0.5 µg/mL | 8 µg/mL | 0.5 µg/mL | > 128 µg/mL | 0.5 µg/mL | 0.5 µg/mL | 0.5 µg/mL | 16 µg/mL | – | > 128 µg/mL | 8 µg/mL | > 128 µg/mL | 8 µg/mL | 8 µg/mL | 1 µg/mL | 0.25 µg/mL | MIC ([1]; Escherichia coli, 257): 0.5 µg/mL; MIC [10, 28]: 0.5 µg/mL; MIC ([15]; Escherichia coli, 503455): 4 µg/mL |
